Patent US5478728A, “Process for antibody combining site-catalyzed SYN elimination in the formation of a CIS olefin” (The Scripps Research Institute, priority 1994, dated 1995)
Entries after “also recorded” stand apart in the source; their conditions may differ.

What was measured:
[1] = Background elimination and isomerization in the absence of antibody; format: physicochemical; conditions: for isomerization of olefinic product under background reaction conditions / elimination product formed in the absence of antibody: 15 percent aq DMSO, 100 mM CHES buffer; for isomerization of olefinic product under background reaction conditions: no antibody
Method: Reaction conditions: 15 percent aq DMSO, 100 mM CHES buffer, pH 9.0, 37° C.
(§1) Immunization with the KLH conjugate and generation of monoclonal antibodies were performed as described hereinafter. Twenty-six monoclonal antibodies specific for Compound 5 were assayed for catalysis. The rate of elimination of substrate Compound 1 to product Compounds 3 or 4 was assayed in the absence and presence of antibody at 37° C. Thus, a solution of antibody in 100 mM CHES buffer, pH 9.0 at 37° C., was treated with substrate Compound 1 in DMSO to provide a final solution containing […] in 15 percent aqueous DMSO, 100 mM CHES, pH 9.0. All reaction rates were determined by analytical reverse phase HPLC (Vydac-C18, 41 percent acetonitrile in H2 O/0.1 percent trifluoroacetic acid) by measuring product formation relative to 4-methyl-3-nitroanisole as a standard.

[2] = test system: antibody 1D4; test: Inhibition of 1D4 catalytic activity by hapten; format: biochemical, mouse; conditions: addition of hapten; substrate Compound 1
Method: as §1
The initial rate of syn elimination by 1D4, when measured as a function of substrate Compound 1 concentrations followed Michaelis-Menten kinetics.

Structure (SMILES) | isomerization of olefinic product under background reaction conditions ([1]; pH 9.0, 37° C.) | elimination product formed in the absence of antibody ([1]; pH 9.0, 37° C.) | also measured
C/C(=C\c1ccccc1)C(=O)c1ccccc1 [Compound 3] | No isomerization |  | 
C/C(=C/c1ccccc1)C(=O)c1ccccc1 [Compound 4] | No isomerization |  | 
N[C@@]1(C(=O)c2ccccc2)[C@@H]2C[C@@H](C[C@H]2OC(=O)CCC(=O)O)[C@@H]1c1ccccc1 (relative stereo) [Compound 5, (1R*,2S*,4R*,5S*,6S*)-6-Amino-6-benzoyl-5-phenylbicyclo[2.2.1]heptane-2-hemisuccinate] |  |  | inhibition of the catalytic activity of 1D4 [2]: competitively inhibited
C[C@@H](C(=O)c1ccccc1)[C@@H](F)c1ccccc1 (relative stereo) [Compound 1] |  | exclusively the trans olefin Compound 3; also recorded: only product Compound 3 was generated | first order rate constant of elimination to Compound 3 ([1]; absence of antibody, 15 percent aqueous DMSO, 100 mM CHES, pH 9.0, 37° C.): 0.000248 min⁻¹; formation of cis product Compound 4 in the absence of antibody ([1]; reaction conditions pH 9.0, 37° C.): immeasurably slow
C[C@@H](C(=O)c1ccccc1)[C@H](F)c1ccccc1 (relative stereo) [Compound 2] |  | eliminates entirely to the trans olefin Compound 3 | 
